From patent US6994841B1, “Relating to magnetic resonance imaging” (Kucharczyk and Moseley Partners, priority 1990, dated 2006)

Tests used:
[1] = system: cat brain after right middle cerebral artery (MCA) occlusion; assay: DyDTPA-BMA-enhanced T2-weighted spin-echo MRI of cerebral perfusion deficit after MCA occlusion; format: in vivo; details: for signal difference between ischemic and contralateral control tissue: mean ± S.E.M.
Procedure: Young adult cats weighing 2.0 to 4.5 kg were anaesthetized with 30 mg/kg i.v. Nembutal. Polyethylene catheters were placed in the femoral artery and vein for blood pressure monitoring and drug administration. The right middle cerebral artery (MCA) was isolated via the transorbital approach and occluded just proximal to the origin of the lateral striate arteries with bipolar electrocautery followed by complete surgical transection. The dural incision and orbit were covered with saline moistened gauze and absorbable gelatin sponge.
A General Electric CSI (2 Tesla) unit, equipped with Acustar S-150 self-shielded gradient coils (+20 gauss/cm, 15 cm bore size) was used. MRI was performed with an 8.5 cm inner-diameter low-pass birdcage proton imaging coil. Successive multislice T2-weighted coronal images were obtained for up to 12 hours following occlusion. Spin-echo T2-weighted images (TR 2800, TE 80 and 160, 3 mm slices, 1 mm gap) were obtained with a field-of-view (FOV) of 80 mm in which two scans were averaged for each one of the 128 phase-encoding steps resulting in a total acquisition time of 12 minutes.
In order to evaluate the anatomic region of perfusion deficiency following MCA occlusion, cats were injected with a non-ionic T2*-shortening contrast agent, DyDTPA-BMA. The DyDTPA-BMA complex was prepared by refluxing an aqueous suspension containing stoichiometric amounts of dysprosium oxide and DTPA-BMA. The contrast agent was infused i.v. at doses of 0.25, 0.5 or 1.0 mmol/kg beginning at phase-encoding step #32 and finishing at step #60 (approximately 3 min) of T2-weighted image acquisition. DyDTPA-BMA injections were given at different time points post MCA occlusion in individual cats. After injection, the magnetic susceptibility effect was quantified for up to 60 minutes in both ischemic and normal hemispheres by comparing region-of-interest (ROI) intensity to pre-contrast T2-weighted ROI intensities. […] A signal intensity ratio was calculated as the ROI image intensity ratio of an abnormal, ischemic region over that of the normal, contralateral side. Results were expressed as the mean percentage change ±Standard Error of the Mean (X±S.E.M.)
At the conclusion of the MR protocol, 15 ml/kg of a 2% solution of 2,3,5-triphenyl tetrazolium chloride (TTC) was infused transcardially. The brain was removed from the cranium after 10–20 minutes, immersed in a 2% TTC solution for another 10–20 minutes, and then stored overnight in 10% buffered formalin in a light shielded container. The brain was sectioned coronally (2–3 mm slices) from 24–36 hours later and immediately examined for histologic evidence of ischemic damage as evidenced by pallor of TTC-staining.

mice = assay: LD50 i.v. administration in mice; format: in vivo

## CNC(=O)CN(CCN(CCN(CC(=O)[O-])CC(=O)NC)CC(=O)[O-])CC(=O)[O-].[Dy+3] [DyDTPA-BMA]
[1]; 0.25 mmol/kg, 5 cats tested
  Onset of signal hypertensity (relative to pre-contrast T2-weighted image): Earlier (number of cats): 1
  Onset of signal hypertensity (relative to pre-contrast T2-weighted image): Later (number of cats): 0
  Onset of signal hypertensity (relative to pre-contrast T2-weighted image): Same Time (number of cats): 4
[1]; 0.25 mmol/kg, 5 injections
  Signal intensity ratio of injured to contralateral control tissue (relative to pre-contrast T2 weighted image): Better (number of injections): 4
  Signal intensity ratio of injured to contralateral control tissue (relative to pre-contrast T2 weighted image): Same (number of injections): 1
  Signal intensity ratio of injured to contralateral control tissue (relative to pre-contrast T2 weighted image): Worse (number of injections): 0
[1]; 0.5 mmol/kg i.v., gray matter of normal non-occluded cerebral hemisphere, first 15 minutes after injection
  maximum signal intensity losses: 35%
[1]; 0.50 mmol/kg, 16 cats tested
  Onset of signal hypertensity (relative to pre-contrast T2-weighted image): Earlier (number of cats): 12
  Onset of signal hypertensity (relative to pre-contrast T2-weighted image): Later (number of cats): 0
  Onset of signal hypertensity (relative to pre-contrast T2-weighted image): Same Time (number of cats): 4
[1]; 0.50 mmol/kg, 23 injections
  Signal intensity ratio of injured to contralateral control tissue (relative to pre-contrast T2 weighted image): Better (number of injections): 17
  Signal intensity ratio of injured to contralateral control tissue (relative to pre-contrast T2 weighted image): Same (number of injections): 6
  Signal intensity ratio of injured to contralateral control tissue (relative to pre-contrast T2 weighted image): Worse (number of injections): 0
[1]; 1.0 mmol/kg, 6 cats tested
  Onset of signal hypertensity (relative to pre-contrast T2-weighted image): Earlier (number of cats): 4
  Onset of signal hypertensity (relative to pre-contrast T2-weighted image): Later (number of cats): 0
  Onset of signal hypertensity (relative to pre-contrast T2-weighted image): Same Time (number of cats): 2
[1]; 1.0 mmol/kg, 16 injections
  Signal intensity ratio of injured to contralateral control tissue (relative to pre-contrast T2 weighted image): Better (number of injections): 14
  Signal intensity ratio of injured to contralateral control tissue (relative to pre-contrast T2 weighted image): Same (number of injections): 2
  Signal intensity ratio of injured to contralateral control tissue (relative to pre-contrast T2 weighted image): Worse (number of injections): 0
[1]; 45 minutes after administration, all cerebral tissues
  signal intensity recovery, of pre-contrast control values: at least 90%
[1]; basal ganglia
  signal difference between ischemic and contralateral control tissue: 26±8%
[1]; both 1 mmol/kg and 0.5 mmol/kg dosages
  time post-occlusion at which relative hyperintensity was found in occluded basal ganglia (as early as): 30 min
[1]; dosage increased from 0.5 to 1.0 mmol/kg
  difference in immediate post-contrast signal intensity on increasing dosage: only a minimal difference
[1]; gray matter in the inferior parietal gyrus
  signal difference between ischemic and contralateral control tissue: 42±14%
[1]; white matter in the internal capsule
  signal difference between ischemic and contralateral control tissue: 5±4%
mice
  LD50: 34 mmol/kg
